Measured values taken from ChEMBL document CHEMBL4184109, “Design, synthesis, and structure-activity relationship studies of novel tetrazole antifungal agents with potent activity, broad antifungal spectrum and high selectivity” (Bioorg Med Chem Lett, 2018).
Converted amounts (≈) assume the structure as drawn.

What was measured:
Assay type in all cases: functional
[1] = tested on: Aspergillus fumigatus; test: Antifungal activity against Aspergillus fumigatus after 48 hrs by serial dilution method
[2] = tested on: Nakaseomyces glabratus; test: Antifungal activity against Candida glabrata after 24 hrs by serial dilution method
[3] = tested on: Candida albicans; test: Antifungal activity against Candida albicans SC5314 after 24 hrs by serial dilution method; details: SC5314, 24 h
[4] = tested on: Candida parapsilosis; test: Antifungal activity against Candida parapsilosis ATCC 22019 after 24 hrs by serial dilution method; details: Lodderomyces parapsilosis, ATCC 22019, 24 h
[5] = tested on: Candida albicans; test: Antifungal activity against Candida albicans Y0109 after 24 hrs by serial dilution method; details: Y0109, 24 h
[6] = tested on: Cryptococcus neoformans; test: Antifungal activity against Cryptococcus neoformans after 72 hrs by serial dilution method
[7] = tested on: Trichophyton rubrum; test: Antifungal activity against Trichophyton rubrum by serial dilution method
[8] = tested on: Nannizzia gypsea; test: Antifungal activity against Microsporum gypseum by serial dilution method

SMILES | MIC80 [1] [µg/mL] | MIC80 [2] [µg/mL] | MIC80 [3] [µg/mL] | MIC80 [4] [µg/mL] | MIC80 [5] [µg/mL] | MIC80 [6] [µg/mL] | MIC80 [7] [µg/mL] | MIC80 [8] [µg/mL]
O=c1n(-c2ccc(C(F)(F)C(O)(Cn3cnnn3)c3ccc(F)cc3F)nc2)cnn1CCO (stereo not drawn) | > 8 | > 8 | > 8 | > 8 | > 8 | > 8 |  | 
COCCOc1ccc(Cn2ncn(-c3ccc(C(F)(F)C(O)(Cn4cnnn4)c4ccc(F)cc4F)nc3)c2=O)cc1 (stereo not drawn) | > 64 | 2 (≈ 3.33 µM) | 1 (≈ 1.67 µM) | 2 (≈ 3.33 µM) | 1 (≈ 1.67 µM) | 0.5 (≈ 0.833 µM) |  | 
N#Cc1ccc(Cn2ncn(-c3ccc(C(F)(F)C(O)(Cn4cnnn4)c4ccc(F)cc4F)nc3)c2=O)cc1 (stereo not drawn) | > 8 | 4 (≈ 7.25 µM) | 2 (≈ 3.63 µM) | 0.5 (≈ 0.907 µM) | 1 (≈ 1.81 µM) | 4 (≈ 7.25 µM) |  | 
O=c1n(-c2ccc(C(F)(F)C(O)(Cn3cnnn3)c3ccc(F)cc3F)nc2)cnn1CC1CCCCC1 (stereo not drawn) | > 64 | 1 (≈ 1.88 µM) | 1 (≈ 1.88 µM) | 0.25 (≈ 0.469 µM) | 0.5 (≈ 0.939 µM) | 1 (≈ 1.88 µM) | 2 (≈ 3.76 µM) | 4 (≈ 7.51 µM)
CC1CCC(n2ncn(-c3ccc(C(F)(F)C(O)(Cn4cnnn4)c4ccc(F)cc4F)nc3)c2=O)CC1 (stereo not drawn) | > 64 | 2 (≈ 3.76 µM) | 2 (≈ 3.76 µM) | 1 (≈ 1.88 µM) | 1 (≈ 1.88 µM) | 1 (≈ 1.88 µM) | 0.5 (≈ 0.939 µM) | > 64
O=c1n(-c2ccc(C(F)(F)C(O)(Cn3cnnn3)c3ccc(F)cc3F)nc2)cnn1C1CCC(F)(F)CC1 (stereo not drawn) | > 64 | 2 (≈ 3.61 µM) | 1 (≈ 1.8 µM) | 0.5 (≈ 0.902 µM) | 0.5 (≈ 0.902 µM) | 0.5 (≈ 0.902 µM) | 2 (≈ 3.61 µM) | > 64
CCC(CC)n1ncn(-c2ccc(C(F)(F)C(O)(Cn3cnnn3)c3ccc(F)cc3F)nc2)c1=O (stereo not drawn) | > 8 | 1 (≈ 1.97 µM) | 1 (≈ 1.97 µM) | 0.25 (≈ 0.494 µM) | 2 (≈ 3.95 µM) | 4 (≈ 7.9 µM) |  | 
O=c1n(-c2ccc(C(F)(F)C(O)(Cn3cnnn3)c3ccc(F)cc3F)nc2)cnn1Cc1ccncc1 (stereo not drawn) | > 64 | 4 (≈ 7.58 µM) | 4 (≈ 7.58 µM) | 8 (≈ 15.2 µM) | 4 (≈ 7.58 µM) | 2 (≈ 3.79 µM) |  | 
CC1(C)CCC(n2ncn(-c3ccc(C(F)(F)C(O)(Cn4cnnn4)c4ccc(F)cc4F)nc3)c2=O)CC1 (stereo not drawn) | > 64 | 8 (≈ 14.6 µM) | 4 (≈ 7.32 µM) | 4 (≈ 7.32 µM) | 4 (≈ 7.32 µM) | 4 (≈ 7.32 µM) | 0.125 (≈ 0.229 µM) | > 64
O=c1n(-c2ccc(C(F)(F)C(O)(Cn3cnnn3)c3ccc(F)cc3F)nc2)cnn1Cc1ccc(OC(F)(F)F)cc1 (stereo not drawn) | > 8 | 4 (≈ 6.55 µM) | 1 (≈ 1.64 µM) | 0.5 (≈ 0.819 µM) | 1 (≈ 1.64 µM) | 2 (≈ 3.28 µM) |  | 
CS(=O)(=O)c1ccc(Cn2ncn(-c3ccc(C(F)(F)C(O)(Cn4cnnn4)c4ccc(F)cc4F)nc3)c2=O)cc1 (stereo not drawn) | > 64 | > 64 | > 64 | > 64 | > 64 | > 64 |  | 
O=c1n(-c2ccc(C(F)(F)C(O)(Cn3cnnn3)c3ccc(F)cc3F)nc2)cnn1C1CCCCCCC1 (stereo not drawn) | > 64 | 4 (≈ 7.32 µM) | 2 (≈ 3.66 µM) | 2 (≈ 3.66 µM) | 1 (≈ 1.83 µM) | 2 (≈ 3.66 µM) | 1 (≈ 1.83 µM) | > 64
O=C1CCCCC1n1ncn(-c2ccc(C(F)(F)C(O)(Cn3cnnn3)c3ccc(F)cc3F)nc2)c1=O (stereo not drawn) | > 8 | > 8 | > 8 | 2 (≈ 3.76 µM) | 4 (≈ 7.51 µM) | > 8 |  | 
CCn1ncn(-c2ccc(C(F)(F)C(O)(Cn3cnnn3)c3ccc(F)cc3F)nc2)c1=O (stereo not drawn) | > 8 | 8 (≈ 17.2 µM) | 2 (≈ 4.31 µM) | 2 (≈ 4.31 µM) | 2 (≈ 4.31 µM) | 8 (≈ 17.2 µM) |  | 
COC1CCC(n2ncn(-c3ccc(C(F)(F)C(O)(Cn4cnnn4)c4ccc(F)cc4F)nc3)c2=O)CC1 (stereo not drawn) | > 64 | 4 (≈ 7.29 µM) | 1 (≈ 1.82 µM) | 1 (≈ 1.82 µM) | 0.5 (≈ 0.912 µM) | 1 (≈ 1.82 µM) | 8 (≈ 14.6 µM) | > 64
O=c1n(-c2ccc(C(F)(F)C(O)(Cn3cnnn3)c3ccc(F)cc3F)nc2)cnn1Cc1ccc(Cl)cc1 (stereo not drawn) | > 8 | 2 (≈ 3.57 µM) | 1 (≈ 1.78 µM) | 0.5 (≈ 0.891 µM) | 1 (≈ 1.78 µM) | 1 (≈ 1.78 µM) |  | 
CC(C)n1ncn(-c2ccc(C(F)(F)C(O)(Cn3cnnn3)c3ccc(F)cc3F)nc2)c1=O (stereo not drawn) | > 8 | 2 (≈ 4.18 µM) | 1 (≈ 2.09 µM) | 0.5 (≈ 1.05 µM) | 1 (≈ 2.09 µM) | 8 (≈ 16.7 µM) |  | 
O=c1n(-c2ccc(C(F)(F)C(O)(Cn3cnnn3)c3ccc(F)cc3F)nc2)cnn1Cc1ccc(F)cc1 (stereo not drawn) | > 8 | 2 (≈ 3.67 µM) | 0.5 (≈ 0.918 µM) | 0.25 (≈ 0.459 µM) | 1 (≈ 1.84 µM) | 2 (≈ 3.67 µM) |  | 
CC(O)(CO)Cn1ncn(-c2ccc(C(F)(F)C(O)(Cn3cnnn3)c3ccc(F)cc3F)nc2)c1=O (stereo not drawn) | > 8 | > 8 | > 8 | > 8 | > 8 | > 8 |  | 

SMILES | MIC80 [1] [µg/mL] | MIC80 [2] [µg/mL] | MIC80 [3] [µg/mL] | MIC80 [4] [µg/mL] | MIC80 [5] [µg/mL] | MIC80 [6] [µg/mL] | MIC80 [7] [µg/mL] | MIC80 [8] [µg/mL]
O=c1n(-c2ccc(C(F)(F)C(O)(Cn3cnnn3)c3ccc(F)cc3F)nc2)cnn1Cc1ccc(C(F)(F)F)cc1 (stereo not drawn) | > 8 | 4 (≈ 6.73 µM) | 2 (≈ 3.36 µM) | 0.5 (≈ 0.841 µM) | 1 (≈ 1.68 µM) | 4 (≈ 6.73 µM) |  | 
O=c1n(-c2ccc(C(F)(F)C(O)(Cn3cnnn3)c3ccc(F)cc3F)nc2)cnn1Cc1cccnc1 (stereo not drawn) | > 64 | 4 (≈ 7.58 µM) | 8 (≈ 15.2 µM) | 8 (≈ 15.2 µM) | 4 (≈ 7.58 µM) | 2 (≈ 3.79 µM) |  | 
O=c1n(-c2ccc(C(F)(F)C(O)(Cn3cnnn3)c3ccc(F)cc3F)nc2)cnn1CC1CC1 (stereo not drawn) | > 8 | 4 (≈ 8.16 µM) | 0.5 (≈ 1.02 µM) | 0.25 (≈ 0.51 µM) | 0.5 (≈ 1.02 µM) | 4 (≈ 8.16 µM) |  | 
CS(=O)(=O)CCn1ncn(-c2ccc(C(F)(F)C(O)(Cn3cnnn3)c3ccc(F)cc3F)nc2)c1=O (stereo not drawn) | > 8 | > 8 | > 8 | > 8 | > 8 | > 8 |  | 
CCC(C)n1ncn(-c2ccc(C(F)(F)C(O)(Cn3cnnn3)c3ccc(F)cc3F)nc2)c1=O (stereo not drawn) | > 8 | 2 (≈ 4.06 µM) | 1 (≈ 2.03 µM) | 0.25 (≈ 0.508 µM) | 1 (≈ 2.03 µM) | 4 (≈ 8.12 µM) |  | 
O=c1n(-c2ccc(C(F)(F)C(O)(Cn3cnnn3)c3ccc(F)cc3F)nc2)cnn1Cc1ccccc1 (stereo not drawn) | > 8 | 4 (≈ 7.6 µM) | 0.5 (≈ 0.95 µM) | 0.25 (≈ 0.475 µM) | 1 (≈ 1.9 µM) | 4 (≈ 7.6 µM) |  | 
COc1ccc(Cn2ncn(-c3ccc(C(F)(F)C(O)(Cn4cnnn4)c4ccc(F)cc4F)nc3)c2=O)cc1 (stereo not drawn) | > 8 | 2 (≈ 3.59 µM) | 0.5 (≈ 0.899 µM) | 0.25 (≈ 0.449 µM) | 0.5 (≈ 0.899 µM) | 2 (≈ 3.59 µM) |  | 
O=c1n(-c2ccc(C(F)(F)C(O)(Cn3cnnn3)c3ccc(F)cc3F)nc2)cnn1C1CC=CCC1 (stereo not drawn) | > 64 | 1 (≈ 1.94 µM) | 0.5 (≈ 0.968 µM) | 0.125 (≈ 0.242 µM) | 0.5 (≈ 0.968 µM) | 1 (≈ 1.94 µM) | 2 (≈ 3.87 µM) | 8 (≈ 15.5 µM)
CC(O)Cn1ncn(-c2ccc(C(F)(F)C(O)(Cn3cnnn3)c3ccc(F)cc3F)nc2)c1=O (stereo not drawn) | > 8 | > 8 | > 8 | 8 (≈ 16.2 µM) | > 8 | 8 (≈ 16.2 µM) |  | 
CSc1ccc(Cn2ncn(-c3ccc(C(F)(F)C(O)(Cn4cnnn4)c4ccc(F)cc4F)nc3)c2=O)cc1 (stereo not drawn) | > 64 | 4 (≈ 6.99 µM) | 4 (≈ 6.99 µM) | 4 (≈ 6.99 µM) | 4 (≈ 6.99 µM) | 2 (≈ 3.49 µM) |  | 
CC(C)(O)Cn1ncn(-c2ccc(C(F)(F)C(O)(Cn3cnnn3)c3ccc(F)cc3F)nc2)c1=O (stereo not drawn) | > 8 | > 8 | > 8 | 4 (≈ 7.87 µM) | > 8 | > 8 |  | 
Cc1ccc(Cn2ncn(-c3ccc(C(F)(F)C(O)(Cn4cnnn4)c4ccc(F)cc4F)nc3)c2=O)cc1 (stereo not drawn) | > 8 | 2 (≈ 3.7 µM) | 1 (≈ 1.85 µM) | 0.25 (≈ 0.463 µM) | 1 (≈ 1.85 µM) | 2 (≈ 3.7 µM) |  | 
O=c1n(-c2ccc(C(F)(F)C(O)(Cn3cnnn3)c3ccc(F)cc3F)nc2)cnn1C1CCC1 (stereo not drawn) | > 64 | 1 (≈ 2.04 µM) | 1 (≈ 2.04 µM) | 0.5 (≈ 1.02 µM) | 0.25 (≈ 0.51 µM) | 0.5 (≈ 1.02 µM) | 8 (≈ 16.3 µM) | > 64
O=c1n(-c2ccc(C(F)(F)C(O)(Cn3cnnn3)c3ccc(F)cc3F)nc2)cnn1CCC1CCCCC1 (stereo not drawn) | > 64 | 1 (≈ 1.83 µM) | 1 (≈ 1.83 µM) | 0.5 (≈ 0.915 µM) | 0.5 (≈ 0.915 µM) | 4 (≈ 7.32 µM) | 8 (≈ 14.6 µM) | 4 (≈ 7.32 µM)
CC(C)C1CCC(n2ncn(-c3ccc(C(F)(F)C(O)(Cn4cnnn4)c4ccc(F)cc4F)nc3)c2=O)CC1 (stereo not drawn) | > 64 | 16 (≈ 28.5 µM) | 16 (≈ 28.5 µM) | 16 (≈ 28.5 µM) | 8 (≈ 14.3 µM) | 16 (≈ 28.5 µM) | 1 (≈ 1.78 µM) | > 64
O=c1n(-c2ccc(C(F)(F)C(O)(Cn3cnnn3)c3ccc(F)cc3F)nc2)cnn1Cc1ccccn1 (stereo not drawn) | > 64 | 2 (≈ 3.79 µM) | 2 (≈ 3.79 µM) | 16 (≈ 30.3 µM) | 4 (≈ 7.58 µM) | 1 (≈ 1.9 µM) |  | 
O=c1n(-c2ccc(C(F)(F)C(O)(Cn3cnnn3)c3ccc(F)cc3F)nc2)cnn1C1CCCCCC1 (stereo not drawn) | > 64 | 1 (≈ 1.88 µM) | 1 (≈ 1.88 µM) | 0.5 (≈ 0.939 µM) | 0.5 (≈ 0.939 µM) | 0.5 (≈ 0.939 µM) |  | > 64
O=c1n(-c2ccc(C(F)(F)C(O)(Cn3cnnn3)c3ccc(F)cc3F)nc2)cnn1CC#CCO (stereo not drawn) | > 8 | > 8 | > 8 | 4 (≈ 7.93 µM) | > 8 | > 8 |  | 
